Data: patent US20070248701A1, “METHODS AND FORMULATIONS FOR INHIBITING NATURALLY OCCURRING PHOSPHODIESTERASE” (priority 2003, published 2007)
Where two headings read alike, the source gives them in different places.

Experiments:
Phosphodiesterase PDE4 [1] = test: Phosphodiesterase PDE4 enzyme assay; type: biochemical, human; settings: reference compound tested concurrently, batch 70680; read-out: Concurrent IC50
Phosphodiesterase PDE1 [2] = test: Phosphodiesterase PDE1 enzyme assay; type: biochemical, bovine; settings: reference compound tested concurrently, batch 70431; read-out: Concurrent IC50
Phosphodiesterase PDE3 [3] = biological target: T1, Phosphodiesterase PDE3 (Homo sapiens, UniProt Q14432); settings: reference compound, historical value; cited from earlier work
Phosphodiesterase PDE2 [4] = biological target: T2, Phosphodiesterase PDE2 (Homo sapiens, UniProt O00408); test: Phosphodiesterase PDE2 enzyme assay; type: biochemical; settings: reference compound tested concurrently, batch 70678; read-out: Concurrent IC50
Phosphodiesterase PDE2 [5] = biological target: T2, Phosphodiesterase PDE2; settings: reference compound, historical value; cited from earlier work
Phosphodiesterase PDE5 [6] = biological target: T3, Phosphodiesterase PDE5 (Homo sapiens, UniProt O76074); settings: reference compound, historical value; cited from earlier work
Phosphodiesterase PDE4 [7] = settings: reference compound, historical value; cited from earlier work
Phosphodiesterase PDE3 [8] = biological target: T1, Phosphodiesterase PDE3; test: Phosphodiesterase PDE3 enzyme assay; type: biochemical; settings: reference compound tested concurrently, batch 70679; read-out: Concurrent IC50
Phosphodiesterase PDE5 [9] = biological target: T3, Phosphodiesterase PDE5; test: Phosphodiesterase PDE5 enzyme assay; type: biochemical; settings: reference compound tested concurrently, batch 70681; read-out: Concurrent IC50
Phosphodiesterase PDE1 [10] = settings: reference compound, historical value; cited from earlier work
Phosphodiesterase PDE6 [11] = biological target: T4, Phosphodiesterase PDE6 (Bos taurus, UniProt P11541+P23439); settings: reference compound, historical value; cited from earlier work
T4 sequence (P11541 1-859): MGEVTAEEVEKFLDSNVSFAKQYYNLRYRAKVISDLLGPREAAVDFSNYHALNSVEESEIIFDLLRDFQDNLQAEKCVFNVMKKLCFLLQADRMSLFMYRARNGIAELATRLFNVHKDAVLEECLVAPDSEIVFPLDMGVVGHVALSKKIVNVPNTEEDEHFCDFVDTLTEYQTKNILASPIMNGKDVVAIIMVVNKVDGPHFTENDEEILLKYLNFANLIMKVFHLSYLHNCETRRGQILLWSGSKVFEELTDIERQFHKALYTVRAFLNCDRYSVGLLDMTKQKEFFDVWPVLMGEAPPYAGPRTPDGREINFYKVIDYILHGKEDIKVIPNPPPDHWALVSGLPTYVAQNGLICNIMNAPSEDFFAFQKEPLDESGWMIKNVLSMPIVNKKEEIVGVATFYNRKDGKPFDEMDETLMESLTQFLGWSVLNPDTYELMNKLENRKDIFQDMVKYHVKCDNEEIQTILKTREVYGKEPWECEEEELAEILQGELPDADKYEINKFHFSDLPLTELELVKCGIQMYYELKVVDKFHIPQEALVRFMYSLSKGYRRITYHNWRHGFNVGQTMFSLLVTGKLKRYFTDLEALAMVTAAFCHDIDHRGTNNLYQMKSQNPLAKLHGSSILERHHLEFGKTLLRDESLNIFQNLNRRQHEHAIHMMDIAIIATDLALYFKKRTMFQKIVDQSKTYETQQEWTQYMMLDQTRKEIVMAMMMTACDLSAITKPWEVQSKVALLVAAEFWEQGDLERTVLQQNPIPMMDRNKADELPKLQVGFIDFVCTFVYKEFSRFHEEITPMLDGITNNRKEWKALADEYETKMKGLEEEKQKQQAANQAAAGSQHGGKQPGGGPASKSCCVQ
T4 sequence (P23439 1-853): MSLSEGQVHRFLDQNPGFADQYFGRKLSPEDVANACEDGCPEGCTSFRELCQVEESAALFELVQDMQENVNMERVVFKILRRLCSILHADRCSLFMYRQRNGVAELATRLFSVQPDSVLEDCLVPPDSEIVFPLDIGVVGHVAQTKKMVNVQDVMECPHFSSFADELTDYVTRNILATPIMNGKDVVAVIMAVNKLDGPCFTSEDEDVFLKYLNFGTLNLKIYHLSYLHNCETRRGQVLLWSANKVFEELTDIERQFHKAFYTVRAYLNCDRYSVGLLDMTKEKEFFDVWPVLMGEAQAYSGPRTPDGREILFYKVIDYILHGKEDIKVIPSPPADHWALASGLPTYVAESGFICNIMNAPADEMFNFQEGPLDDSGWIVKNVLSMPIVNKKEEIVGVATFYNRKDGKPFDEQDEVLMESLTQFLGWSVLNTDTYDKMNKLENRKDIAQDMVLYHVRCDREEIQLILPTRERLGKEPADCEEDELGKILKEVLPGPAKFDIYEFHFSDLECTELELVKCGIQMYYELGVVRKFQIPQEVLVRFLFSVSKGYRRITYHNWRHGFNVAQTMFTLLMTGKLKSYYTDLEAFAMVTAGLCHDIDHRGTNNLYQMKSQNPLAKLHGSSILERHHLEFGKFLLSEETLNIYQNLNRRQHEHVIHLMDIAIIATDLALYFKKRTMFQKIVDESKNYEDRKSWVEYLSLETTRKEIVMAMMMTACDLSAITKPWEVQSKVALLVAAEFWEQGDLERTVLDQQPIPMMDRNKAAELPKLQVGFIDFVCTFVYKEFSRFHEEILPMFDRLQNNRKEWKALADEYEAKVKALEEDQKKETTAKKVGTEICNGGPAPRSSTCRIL

Phosphodiesterase PDE6 [12] = biological target: T4, Phosphodiesterase PDE6; test: Phosphodiesterase PDE6 enzyme assay; type: biochemical, bovine; settings: reference compound tested concurrently, batch 70682; read-out: Concurrent IC50
Protocol: The test material (TNPJCon) was tested using an Enzyme assays that involve PDE enzymes from both bovine and human origin known as PDE1, PDE2, PDE3, PDE4, PDE6. All of the enzyme assays were run on a 1% concentration of TNPJCon. Please note that the IC50 was not determined.

T1 sequence (Q14432 whole entry): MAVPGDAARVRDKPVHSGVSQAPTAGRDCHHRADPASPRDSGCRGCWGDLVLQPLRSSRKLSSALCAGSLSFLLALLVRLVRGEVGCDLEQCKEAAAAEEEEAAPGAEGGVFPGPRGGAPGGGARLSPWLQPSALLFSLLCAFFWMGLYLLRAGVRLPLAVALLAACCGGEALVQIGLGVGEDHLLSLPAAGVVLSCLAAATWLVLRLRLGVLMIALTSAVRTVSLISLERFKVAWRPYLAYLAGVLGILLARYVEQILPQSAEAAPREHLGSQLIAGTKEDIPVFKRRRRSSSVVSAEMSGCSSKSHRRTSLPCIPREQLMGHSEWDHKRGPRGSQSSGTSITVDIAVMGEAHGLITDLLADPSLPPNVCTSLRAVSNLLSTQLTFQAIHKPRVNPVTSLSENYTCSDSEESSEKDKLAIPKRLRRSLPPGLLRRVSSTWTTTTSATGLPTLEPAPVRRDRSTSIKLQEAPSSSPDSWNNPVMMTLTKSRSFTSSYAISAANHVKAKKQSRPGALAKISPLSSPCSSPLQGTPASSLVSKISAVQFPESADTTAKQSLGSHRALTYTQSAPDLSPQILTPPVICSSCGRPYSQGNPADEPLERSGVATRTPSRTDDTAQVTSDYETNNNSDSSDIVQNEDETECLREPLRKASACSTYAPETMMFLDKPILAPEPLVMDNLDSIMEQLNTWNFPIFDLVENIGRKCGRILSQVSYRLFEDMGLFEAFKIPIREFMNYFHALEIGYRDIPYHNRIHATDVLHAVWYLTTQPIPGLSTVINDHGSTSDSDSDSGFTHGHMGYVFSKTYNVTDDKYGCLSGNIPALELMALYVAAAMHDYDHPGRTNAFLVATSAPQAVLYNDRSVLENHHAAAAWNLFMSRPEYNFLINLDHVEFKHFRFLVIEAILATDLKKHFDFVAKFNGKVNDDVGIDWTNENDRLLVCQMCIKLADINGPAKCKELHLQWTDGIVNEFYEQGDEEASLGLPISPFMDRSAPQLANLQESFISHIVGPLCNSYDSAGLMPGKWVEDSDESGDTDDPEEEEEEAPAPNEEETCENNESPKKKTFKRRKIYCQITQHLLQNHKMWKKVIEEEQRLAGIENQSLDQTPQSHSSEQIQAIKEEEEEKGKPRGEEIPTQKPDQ
T2 sequence (O00408 whole entry): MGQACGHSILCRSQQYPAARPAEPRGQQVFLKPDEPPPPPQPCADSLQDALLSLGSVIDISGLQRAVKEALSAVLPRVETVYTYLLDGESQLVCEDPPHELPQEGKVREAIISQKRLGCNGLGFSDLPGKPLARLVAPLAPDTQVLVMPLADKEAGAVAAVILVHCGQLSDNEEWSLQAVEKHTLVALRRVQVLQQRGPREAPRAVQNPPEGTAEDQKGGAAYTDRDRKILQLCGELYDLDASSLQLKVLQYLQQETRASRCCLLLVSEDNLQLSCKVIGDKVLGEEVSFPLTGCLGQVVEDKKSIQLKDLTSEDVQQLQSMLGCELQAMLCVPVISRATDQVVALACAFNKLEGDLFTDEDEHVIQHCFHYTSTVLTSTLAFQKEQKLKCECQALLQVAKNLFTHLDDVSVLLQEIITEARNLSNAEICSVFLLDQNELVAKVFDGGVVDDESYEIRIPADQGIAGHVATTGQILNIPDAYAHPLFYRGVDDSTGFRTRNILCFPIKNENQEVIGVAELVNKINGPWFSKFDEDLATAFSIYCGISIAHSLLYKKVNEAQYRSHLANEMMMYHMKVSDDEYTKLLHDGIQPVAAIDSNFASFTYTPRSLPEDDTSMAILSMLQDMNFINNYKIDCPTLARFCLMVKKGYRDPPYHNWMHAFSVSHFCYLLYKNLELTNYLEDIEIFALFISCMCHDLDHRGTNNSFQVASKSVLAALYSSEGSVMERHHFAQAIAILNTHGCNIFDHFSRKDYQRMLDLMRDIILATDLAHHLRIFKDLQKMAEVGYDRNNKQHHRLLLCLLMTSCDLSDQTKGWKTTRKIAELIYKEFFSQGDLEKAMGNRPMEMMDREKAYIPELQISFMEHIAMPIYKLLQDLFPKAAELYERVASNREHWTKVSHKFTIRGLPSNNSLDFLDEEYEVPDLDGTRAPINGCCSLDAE

| SMILES | IC50 (Phosphodiesterase PDE4 [1]) [µM] | IC50 (Phosphodiesterase PDE1 [2]) [µM] | IC50 (Phosphodiesterase PDE3 [3]) [µM] | IC50 (Phosphodiesterase PDE2 [4]) [µM] | IC50 (Phosphodiesterase PDE2 [5]) [µM] | IC50 (Phosphodiesterase PDE5 [6]) [µM] | IC50 (Phosphodiesterase PDE4 [7]) [µM] | IC50 (Phosphodiesterase PDE3 [8]) [µM] | IC50 (Phosphodiesterase PDE5 [9]) [µM] | IC50 (Phosphodiesterase PDE1 [10]) [µM] | IC50 (Phosphodiesterase PDE6 [11]) [µM] | IC50 (Phosphodiesterase PDE6 [12]) [µM] |
| --- | --- | --- | --- | --- | --- | --- | --- | --- | --- | --- | --- | --- |
| CC(C)Cn1c(=O)n(C)c(=O)c2[nH]cnc21 [IBMX] | 30.8 | 3.76 | 4.6 | 81 | 30 | 63 | 6.5 | 20.8 | 65.4 | 1.1 | – | – |
| CCCOc1ccccc1-c1nc2nn[nH]c2c(=O)[nH]1 [Zaprinast] | – | – | – | – | – | – | – | – | – | – | 0.22 | 0.281 |
